Consider one compound from patent publication US9744196B2, “Composition for parenteral administration, method for producing and method use thereof” (N2 PHARMACEUTICALS LTD, priority 2013, dated 2017).

This experiment relates to white rats. Put plainly: Adaptogenic (antistress) properties, shaker-induced transport stress. It counts as in vivo. As for the experimental part: Tests were conducted on 84 white rats and 36 white mice using pharmacological, haematological, biochemical and immunologic assays known in the art. Upon studying beneficial effects of composition A on the organisms of laboratory animals, certain haematological and immunobiological indices of the test and control animals were considered. Haematological parameters were evaluated in blood specimens by methods known in the art: white blood cells count per 1 cubic millimeter using Gorjaev's chamber. The following immunobiological indices were counted: blood protein content, glucose, phagocytosis and a number of other parameters, characterizing condition of an organism. The total protein content in blood serum was measured by refractometric analysis. Refractive index of blood serum depends mainly on the amount of proteins.
Glucose concentration was measured using the ortho-toluidine method based on staining of glucose compound with ortho-toluidine in acetic acid solution, the intensity of said being proportional to the glucose concentration.
The test was conducted on 12 rats, 4 animals being in each of three groups. Stress in experimental white rats was induced using a shaking machine simulating transport (physical) stress. The box with animals was placed onto the shaker and held atop the operating machine for 30-40 min. The most informative parameters, characterizing the onset and development of stress response (stress mediators): glucose, total protein and leukocytes (WBC) levels, were measured in blood of the white rats.
Composition A was administered to the animals of the 1st group intramuscularly 3 days previous to stress induction in a dose of 0.2 ml. 2.5% solution of neuroleptic agent aminazin in a dose of 0.5 mg per capita was administered to the animals of the 2nd group. A normal saline solution was administered intramuscularly to the animals of the 3rd (control) group. Rats' blood examination to estimate the above parameters was performed 1 h and 24 h after stress induction.

The mark [1] stands for this setting: 24 hours after stress induction.

For the compound `CN(C)CCCN1c2ccccc2Sc2ccc(Cl)cc21` [Aminazin, aminazin], the Glucose runs as follows: (1 hour after stress induction) 6.46 ± 0.45 mmol/L; (1 hour after stress induction, listed as aminazin) 6.46 ± 0.45 mmol/L; under setting [1], 6.25 ± 0.3 mmol/L; (24 hours after stress induction, listed as aminazin) 6.25 ± 0.3 mmol/L. The “Leukocytes (WBC)” value is 4.3 ± 0.4 10^3/uL (1 hour after stress induction) and 6.1 ± 0.3 10^3/uL under setting [1]. The Total protein reads like this: (1 hour after stress induction) 66.0 ± 0.5 g/L; under setting [1], 72.4 ± 1.6 g/L.
